Test results taken from patent publication US20080064682A1, “Pyrazole Derivatives” (DAIICHI PHARMACEUTICAL CO., LTD., priority 2004, published 2008).
pIC50: −log10 of the molar value. Read-outs that look alike come from different tables or passages of the source.

Experiments:
[1] = system: collagen-induced platelet aggregation; conditions: background art, cited from earlier work
Cyclooxygenase-1 (COX-1) = molecular target: T1, Cyclooxygenase-1 (COX-1) (Ovis aries, UniProt P05979); assay: COX Inhibitor Screening Assay Kit, COX-1 (PGF2α by ELISA); assay type: biochemical; conditions: 50 μM compound; read-out: Inhibitory effect against COX-1 at 50 μM (% inhibition)
T1 construct: purchased Cayman Chemical Company 560101 and 560121
T1 sequence (P05979 25-600): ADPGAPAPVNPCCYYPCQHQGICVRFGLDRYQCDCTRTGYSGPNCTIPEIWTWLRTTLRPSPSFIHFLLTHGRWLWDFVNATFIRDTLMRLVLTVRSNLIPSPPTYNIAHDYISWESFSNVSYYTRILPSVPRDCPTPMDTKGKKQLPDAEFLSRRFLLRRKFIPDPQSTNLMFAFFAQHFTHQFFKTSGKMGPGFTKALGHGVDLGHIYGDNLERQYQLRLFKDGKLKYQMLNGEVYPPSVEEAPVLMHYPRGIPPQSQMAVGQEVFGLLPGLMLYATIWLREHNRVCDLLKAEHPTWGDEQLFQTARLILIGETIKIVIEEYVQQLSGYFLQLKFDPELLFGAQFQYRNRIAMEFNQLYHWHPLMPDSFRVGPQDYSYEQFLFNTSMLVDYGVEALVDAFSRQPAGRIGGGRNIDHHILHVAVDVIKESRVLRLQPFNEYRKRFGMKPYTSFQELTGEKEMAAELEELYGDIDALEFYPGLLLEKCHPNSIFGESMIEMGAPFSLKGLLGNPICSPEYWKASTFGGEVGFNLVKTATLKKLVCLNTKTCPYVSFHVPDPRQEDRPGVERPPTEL
Description: (§1) COX-1 inhibiting activity and COX-2 inhibiting activity of inventive compounds produced in some of the Examples herein were measured by use of a COX Inhibitor Screening Assay Kit (product of Cayman Chemical Company, Catalog Nos. 560101 and 560121).
(§2) Before starting the measurement, a reaction buffer, heme, arachidonic acid, SnCl2, EIA buffer, washing buffer, prostaglandin (PG) screening EIA standard, PG screening acetylcholine esterase (AchE), tracer ([…]), and PG screening EIA antiserum were prepared ready for use.
(§3) Production of PGF in the Presence of COX-1 or COX-2
A reaction mixture containing a compound of the present invention from the Examples (50 μM) and COX-1 or COX-2 was allowed to stand at 37° C. for 10 minutes. Arachidonic acid (10 μL) was added thereto, and the resultant mixture was further allowed to stand at 37° C. for 2 minutes. 1N-Hydrochloric acid (50 μL) was added to the reaction mixture, to thereby stop the reaction. SnCl2 solution (100 μL) was added thereto, and the resultant mixture was allowed to stand at room temperature for 5 minutes.
(§4) (2) Quantitative Determination of PGF2α Using ELISA
Antiserum (rabbit anti-PGF2α antibody, 50 μL) was added to the wells of a 96-well plate that had been coated with mouse anti-rabbit IgG. A solution of PGF2α-containing mixture obtained above (2000-fold dilution, 50 μL) and an AchE tracer (50 μL) were sequentially added to each well, and the mixture was allowed to stand at room temperature for 18 hours. The wells were washed 5 times with the washing buffer to remove an excessive AchE tracer, and an Ellman reagent (200 μL) was added. After keeping the plate in a dark room for 60 minutes, absorbance was measured at 405 nm.
(3) Calculation of Inhibitory Activity of the Compounds of the Present Invention
(§5) A calibration curve was obtained by use of a PG screening EIA standard, and the production amount of PGF2α was determined from the absorbance Percent inhibition against COX-1 or COX-2 in the presence of a 50 μM of the compound was calculated.

[2] = system: collagen-induced platelet aggregation; assay: Platelet aggregation-inhibitory action (collagen-induced aggregation in platelet rich plasma); assay type: cell-based; conditions: human PRP, 37° C., read-out: Inhibition of collagen-induced platelet aggregation, IC50
Description: The blood was centrifuged at 180×g for 10 minutes to separate platelet rich plasma (PRP) from the blood. Upper layer PRP was removed, and the lower layer was centrifuged at 1600×g for 10 minutes, to thereby recover the upper layer platelet poor plasma (PPP). A solution (1 μL) of compound of the present invention was added to PRP (200 μL), and the mixture was allowed to stand at 37° C. for 2 minutes. Subsequently, collagen (2 μL) was added to the resultant mixture so as to induce platelet aggregation. Percent platelet aggregation was measured using PAM-12C (SSR Engineering). Optical transmittance of PPP was regarded as an indicator of 100% aggregation. Percent platelet aggregation values of the respective compounds were determined at different concentrations. IC50 values were calculated.

Cyclooxygenase-2 (COX-2) = molecular target: T2, Cyclooxygenase-2 (COX-2) (Homo sapiens, UniProt P35354); assay: COX Inhibitor Screening Assay Kit, COX-2 (PGF2α by ELISA); assay type: biochemical; conditions: 50 μM compound; read-out: Inhibitory effect against COX-2 at 50 μM (% inhibition)
T2 construct: purchased Cayman Chemical Company 560101 and 560121
T2 sequence (P35354 18-604): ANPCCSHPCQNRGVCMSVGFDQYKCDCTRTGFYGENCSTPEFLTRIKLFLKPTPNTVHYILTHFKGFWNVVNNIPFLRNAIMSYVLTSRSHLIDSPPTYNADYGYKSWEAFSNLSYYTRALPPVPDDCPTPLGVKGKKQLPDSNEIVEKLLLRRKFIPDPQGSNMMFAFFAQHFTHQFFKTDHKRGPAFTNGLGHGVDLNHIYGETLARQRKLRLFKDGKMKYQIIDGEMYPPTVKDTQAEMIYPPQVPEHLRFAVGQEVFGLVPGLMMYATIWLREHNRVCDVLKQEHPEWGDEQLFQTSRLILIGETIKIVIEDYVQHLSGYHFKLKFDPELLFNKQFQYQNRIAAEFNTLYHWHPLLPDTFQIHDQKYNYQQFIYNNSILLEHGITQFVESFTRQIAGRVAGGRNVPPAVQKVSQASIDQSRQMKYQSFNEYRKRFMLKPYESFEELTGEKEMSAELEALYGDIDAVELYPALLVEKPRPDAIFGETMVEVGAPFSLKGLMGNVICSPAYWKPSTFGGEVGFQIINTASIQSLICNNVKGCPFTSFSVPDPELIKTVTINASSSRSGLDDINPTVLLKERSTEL
Description: as §1, §2, §3
A reaction mixture containing a compound of the present invention from the Examples (50 μM) and COX-1 or COX-2 was allowed to stand at 37° C. for 10 minutes. Arachidonic acid (10 μL) was added thereto, and the resultant mixture was further allowed to stand at 37° C. for 2 minutes. […]
as §4
Antiserum (rabbit anti-PGF2α antibody, 50 μL) was added to the wells of a 96-well plate that had been coated with mouse anti-rabbit IgG. […] After keeping the plate in a dark room for 60 minutes, absorbance was measured at 405 nm. […]
as §5

| Compound | pIC50 ([1]; read-out: IC50 value against collagen-induced platelet aggregation) | inhibition at 50 µM (Cyclooxygenase-1 (COX-1)) | pIC50 [2] | inhibition at 50 µM (Cyclooxygenase-2 (COX-2)) | platelet aggregation inhibitory activity compared with inhibitory activity against COX-2 [1] |
| --- | --- | --- | --- | --- | --- |
| CS(=O)(=O)c1ccc(-c2cc(C#N)nn2-c2ccc(F)cc2)cc1 [Compound (A)] | 5.28 | – | – | – | – |
| NC(=O)c1ccc(-c2cc(C(=O)N3CCC(F)(F)CC3)nn2-c2cccnc2)nc1 [Example 13, 1-[5-(5-Carbamoyl-2-pyridyl)-1-(3-pyridyl)-1H-pyrazole-3-carbonyl]-4,4-difluoropiperidine] | – | 10.3% | 6.89 | – | – |
| Cc1ccc(-c2cc(C(=O)N3CCC(F)(F)CC3)nn2-c2cccnc2)nc1 [Example 15, 1-[5-(5-Methyl-2-pyridyl)-1-(3-pyridyl)-1H-pyrazole-3-carbonyl]-4,4-difluoropiperidine] | – | 8.1% | 8.05 | – | – |
| O=C(c1cc(-c2ccc(Cl)cn2)n(-c2cccnc2)n1)N1CCC(F)CC1 [Example 29, 1-[5-(5-Chloro-2-pyridyl)-1-(3-pyridyl)-1H-pyrazole-3-carbonyl]-4-fluoropiperidine] | – | -1.4% | 7.02 | 5.3% | – |
| COC1CCN(C(=O)c2cc(-c3ccc(C)cn3)n(-c3cccnc3)n2)CC1 [Example 30, 1-[5-(5-Methyl-2-pyridyl)-1-(3-pyridyl)-1H-pyrazole-3-carbonyl]-4-methoxypiperidine] | – | -21.1% | 6.92 | – | – |
| Cc1ccc(-c2cc(C(=O)N3CCC(F)CC3)nn2-c2cccnc2)nc1 [Example 33] | – | -16.7% | 7.50 | – | – |
| Cc1ccc(-c2cc(C(=O)N3CCCCN3)nn2-c2cccnc2)nc1 [Example 57, 1-[5-(5-Methylpyridin-2-yl)-1-(pyridin-3-yl)-1H-pyrazole-3-carbonyl]hexahydropyridazine] | – | -17.4% | 6.85 | – | – |
| O=C(c1cc(-c2ccc(CO)cn2)n(-c2cccnc2)n1)N1CCC(F)(F)CC1 [Example 65, 1-[5-(5-Hydroxymethylpyridin-2-yl)-1-(pyridin-3-yl)-1H-pyrazole-3-carbonyl]-4,4-difluoropiperidine] | – | 5.9% | 6.89 | – | – |
| Cc1ccc(-c2cc(C(=O)N3CCN(C)CC3)nn2-c2cccnc2)nc1 [Example 67, 1-[5-(5-Methylpyridin-2-yl)-1-(pyridin-3-yl)-1H-pyrazole-3-carbonyl]-4-methylpiperazine] | – | -21% | 6.72 | – | – |
| Cn1cnc(-c2cc(C(=O)N3CCC(F)(F)CC3)nn2-c2cccnc2)c1 [Example 70, 1-[5-(1-Methyl-1H-imidazol-4-yl)-1-(pyridin-3-yl)-1H-pyrazole-3-carbonyl]-4,4-difluoropiperidine] | – | 5.5% | 6.55 | – | – |
| Cc1ccc(-c2cc(C(=O)N3CCN(C)C(=O)C3)nn2-c2cccnc2)nc1 [Example 71, 1-[5-(5-Methylpyridin-2-yl)-1-(pyridin-3-yl)-1H-pyrazole-3-carbonyl]-4-methyl-3-oxopiperazine] | – | 18.1% | 6.57 | – | – |
| C=C1CCN(C(=O)c2cc(-c3cn(C)cn3)n(-c3cccnc3)n2)CC1 [Example 73, 1-[5-(1-Methyl-1H-imidazol-4-yl)-1-(pyridin-3-yl)-1H-pyrazole-3-carbonyl]-4-methylenepiperidine] | – | 11.9% | 7.11 | – | – |
| COc1ccc(-c2cc(C(F)F)nn2-c2ccc(S(N)(=O)=O)cc2)cc1F [compound (B)] | – | – | – | – | not so potent |
